This is an account of results in patent US20230265151A1, “GIP/GLP1 CO-AGONIST COMPOUNDS” (priority 2020, published 2023).

Where two headings read alike, the source gives them in different places. Some results are limits rather than exact numbers.

The target in one test is hGLP-1R (Homo sapiens, UniProt P43220). The test can be described thus: Functional cAMP formation (HTRF) in HEK-293 clonal cells expressing hGLP-1R, 0.1% bovine casein, without or with 1.0% human serum albumin. Type of test: cell-based. Set-up: expressed in transfected cells. The note with it: for EC50: geometric mean. A digest of the protocol:
(§1)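 Cells were stimulated with peptide for 30 min at 37° C, then intracellular cAMP was measured by competitive HTRF (665/620 nm ratio) and converted to nM using a cAMP standard curve. Relative EC50 and Emax came from four-parameter logistic fits of percent maximal response against peptide concentration.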
(cAMP levels reflect the balance of adenylyl cyclase and phosphodiesterase activity.)

For test [1], the target named is T1, human GLP-1 receptor (hGLP-1R) (Homo sapiens, UniProt P43220).
T1 construct: expressed in transfected cells; crude membranes
T1 sequence (P43220 24-463): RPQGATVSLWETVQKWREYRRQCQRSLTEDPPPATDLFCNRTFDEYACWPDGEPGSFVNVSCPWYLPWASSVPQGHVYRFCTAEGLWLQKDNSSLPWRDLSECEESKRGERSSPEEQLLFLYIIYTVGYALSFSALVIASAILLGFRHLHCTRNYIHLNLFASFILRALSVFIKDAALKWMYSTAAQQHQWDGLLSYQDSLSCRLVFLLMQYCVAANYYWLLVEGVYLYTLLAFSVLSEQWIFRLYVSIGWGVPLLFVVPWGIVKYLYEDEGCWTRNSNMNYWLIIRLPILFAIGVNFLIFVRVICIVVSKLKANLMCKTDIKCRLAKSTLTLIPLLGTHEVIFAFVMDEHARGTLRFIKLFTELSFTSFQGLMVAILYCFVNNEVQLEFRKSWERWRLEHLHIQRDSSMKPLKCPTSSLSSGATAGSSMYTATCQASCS
The test can be described thus: [125I]-GLP-1 binding, SPA with membranes of HEK293 cells expressing hGLP-1R. The protocol: Two methods are used for the preparation of crude cell membranes.
Method 1: Frozen cell pellets are lysed on ice in hypotonic buffer containing 50 mM Tris HCl, pH 7.5, and Roche Complete™ Protease Inhibitors with EDTA. […] The homogenate is centrifuged at 4° C. at 1100 × g for 10 minutes. The supernatant is collected and stored on ice while the pellets are resuspended in homogenization buffer and rehomogenized as described above. The homogenate is centrifuged at 1100 × g for 10 minutes. The second supernatant is combined with the first supernatant and centrifuged at 35000 × g for 1 hour at 4° C. The resulting membrane pellet is resuspended in homogenization buffer containing protease inhibitors at approximately 1 to 3 mg/mL, quick frozen in liquid nitrogen and stored as aliquots in a -80° C. freezer until use.
The homogenate is centrifuged at 4° C. at 1800 × g for 15 minutes. The supernatant is collected and stored on ice while the pellets are resuspended in homogenization buffer (without DNAse I) and rehomogenized as described above. The homogenate is centrifuged at 1800 × g for 15 minutes. The second supernatant is combined with the first supernatant and centrifuged an additional time at 1800 × g for 15 minutes. The overall supernatant is then centrifuged at 25000 × g for 30 minutes at 4° C. The resulting membrane pellet is resuspended in homogenization buffer (without DNAse I) containing protease inhibitors at approximately 1 to 3 mg/mL and stored as aliquots in a -80° C. freezer until use.
The human GLP-1 receptor binding assay is performed using an SPA format with WGA beads. The binding buffer contains 25 mM HEPES, pH 7.4, 2.5 mM CaCl2, 1 mM MgCl2, 0.1% (w/v) bacitracin, 0.003% (w/v) TWEEN®-20, and Roche Complete™ Protease Inhibitors without EDTA.
Raw CPM data for concentration curves of peptides, Gcg, GLP-1, or GIP are converted to percent inhibition by subtracting nonspecific binding (binding in the presence of excess unlabeled Gcg, GLP-1, or GIP, respectively) from the individual CPM values and dividing by the total binding signal, also corrected by subtracting nonspecific binding. Data are analyzed using four-parameter (curve maximum, curve minimum, IC50, Hill slope) nonlinear regression routines (Genedata Screener, version 12.0.4, Genedata AG, Basal, Switzerland). […] Values for Ki are reported as the geometric mean, with error expressed as the standard error of the mean (SEM) and n is equal to the number of independent replicates (determined in assays performed on different days). Geometric Means are calculated as follows: […]
The Ki Ratio (Ki for native control peptide/Ki for test compound) at each receptor and each species is calculated. The Ki Ratio is a rapid indication of the apparent affinity of a peptide compared to the native control peptide.
n=⅟x means that only one value out of the total number of replicates (x) is used to express the mean. SEM is only calculated when n=2 or greater non-qualified results exist. Means are expressed as GeoMetric means with the standard error of the mean (SEM) and the number of replicates (n) indicated in parenthesis.

The target of the next test is T2, hGCGR (Homo sapiens, UniProt P47871).
T2 construct: expressed in transfected cells
T2 sequence (P47871 26-477): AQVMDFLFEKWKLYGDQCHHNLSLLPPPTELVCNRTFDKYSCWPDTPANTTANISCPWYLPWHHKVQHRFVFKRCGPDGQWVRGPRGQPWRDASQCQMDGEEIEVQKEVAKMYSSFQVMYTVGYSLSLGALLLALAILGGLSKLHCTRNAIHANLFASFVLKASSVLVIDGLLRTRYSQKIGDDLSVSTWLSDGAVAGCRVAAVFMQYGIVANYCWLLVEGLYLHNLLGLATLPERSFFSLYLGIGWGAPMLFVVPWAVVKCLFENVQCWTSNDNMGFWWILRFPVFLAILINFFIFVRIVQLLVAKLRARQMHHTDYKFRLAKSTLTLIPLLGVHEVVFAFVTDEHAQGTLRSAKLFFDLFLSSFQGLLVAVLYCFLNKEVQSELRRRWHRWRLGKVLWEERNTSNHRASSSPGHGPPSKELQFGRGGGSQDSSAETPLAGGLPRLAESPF
The test can be described thus: Functional cAMP formation (HTRF) in HEK-293 clonal cells expressing hGCGR, 0.1% bovine casein, without or with 1.0% human serum albumin. The note with it: geometric mean. Type of test: cell-based. A digest of the protocol:
as §1

The target of the next test is T3, hGIPR (Homo sapiens, UniProt P48546).
T3 construct: expressed in transfected cells
T3 sequence (P48546 22-466): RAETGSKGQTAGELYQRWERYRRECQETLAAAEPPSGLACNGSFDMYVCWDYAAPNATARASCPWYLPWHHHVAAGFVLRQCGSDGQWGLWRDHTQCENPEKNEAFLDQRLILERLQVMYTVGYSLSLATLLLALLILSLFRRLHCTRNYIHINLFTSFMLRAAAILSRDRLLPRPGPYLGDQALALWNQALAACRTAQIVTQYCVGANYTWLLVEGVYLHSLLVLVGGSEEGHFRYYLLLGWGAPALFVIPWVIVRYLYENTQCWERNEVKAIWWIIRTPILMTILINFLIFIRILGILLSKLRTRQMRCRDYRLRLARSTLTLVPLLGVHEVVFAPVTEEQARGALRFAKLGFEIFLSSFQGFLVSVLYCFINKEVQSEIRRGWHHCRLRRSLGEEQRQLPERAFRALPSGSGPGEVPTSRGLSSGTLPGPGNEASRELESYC
The test can be described thus: Functional cAMP formation (HTRF) in HEK-293 clonal cells expressing hGIPR, 0.1% bovine casein, without or with 1.0% human serum albumin. The test is classed as cell-based. As to conditions: for EC50: geometric mean. A digest of the protocol: as §1

Where [2] appears, read: 0.1% bovine casein and 1.0% human serum albumin, 37° C., read-out: hGLP-1R EC50, nM (SEM, n).
The mark [3] stands for this setting: human GLP-1R, geometric mean (SEM, n), read-out: Binding Affinity Ki, nM (SEM, n) hGLP-1R.
[4] abbreviates: 0.1% bovine casein and 1.0% human serum albumin, 37° C., read-out: hGCGR EC50, nM (SEM, n).
Where [5] appears, read: cAMP, incubated at 37° C., 0.1% bovine casein (no human serum albumin), read-out: hGCGR EC50, nM (SEM, n).
The mark [6] stands for this setting: 0.1% bovine casein and 1.0% human serum albumin, 37° C., read-out: hGIPR EC50, nM (SEM, n).

Chain of hGLP-1R (P43220 24-463): as the sequence (P43220 24-463) above

The EC50 is the midpoint of the concentration-response curve. In general, Emax refers to the size of the effect at its maximum, as opposed to the concentration needed. As usually defined, the Ki is a dissociation constant, usually derived from enzyme kinetics or from competition with a known ligand. Consider `CC[C@H](C)[C@H](NC(=O)[C@H](CCCN)NC(=O)[C@H](CC(=O)O)NC(=O)[C@H](CC(C)C)NC(=O)[C@](C)(CC(C)C)NC(=O)[C@@H](NC(=O)[C@H](CO)NC(=O)[C@H](Cc1ccncc1)NC(=O)[C@H](CC(=O)O)NC(=O)[C@H](CO)NC(=O)[C@@H](NC(=O)[C@](C)(Cc1ccccc1F)NC(=O)[C@@H](NC(=O)CNC(=O)[C@H](CCC(=O)O)NC(=O)C(C)(C)NC(=O)[C@@H](N)Cc1ccc(O)cc1)[C@@H](C)O)[C@@H](C)O)[C@@H](C)CC)C(=O)N[C@@H](C)C(=O)N[C@@H](CCC(N)=O)C(=O)NC(C)(C)C(=O)N[C@@H](CCCCNC(=O)COCCOCCNC(=O)COCCOCCNC(=O)CC[C@H](NC(=O)CCCCCCCCCCCCC(=O)O)C(=O)O)C(=O)N[C@@H](Cc1ccccc1)C(=O)N[C@H](C(=O)N[C@H](CCC(=O)O)C(=O)N[C@@](C)(Cc1ccc(O)cc1)C(=O)N[C@@H](CC(C)C)C(=O)N[C@H](C(=O)N[C@@H](CCCCNC(=O)COCCOCCNC(=O)COCCOCCNC(=O)CC[C@H](NC(=O)CCCCCCCCCCCCC(=O)O)C(=O)O)C(=O)NCC(=O)NCC(=O)N1CCC[C@H]1C(=O)N[C@@H](CO)C(=O)N[C@@H](CO)C(=O)NCC(=O)N[C@@H](C)C(=O)N1CCC[C@H]1C(=O)N1CCC[C@H]1C(=O)N1CCC[C@H]1C(=O)N[C@@H](CO)C(N)=O)[C@@H](C)CC)[C@@H](C)CC` [Example 73], for which the EC50 is 56.2 nM on hGLP-1R (setting [2]); 0.437 nM at hGLP-1R (cAMP, incubated at 37° C., 0.1% bovine casein (no human serum albumin), read-out: hGLP-1R EC50, nM (SEM, n)); greater than 9950 nM on hGCGR (setting [4]); greater than 9950 nM at hGCGR (setting [5]); 2.16 nM at hGIPR (setting [6]); 0.0207 nM at hGIPR (cAMP, incubated at 37° C., 0.1% bovine casein (no human serum albumin), read-out: hGIPR EC50, nM (SEM, n)). For the same molecule, the maximal response (Emax) on hGLP-1R (HEK293, 0.1% bovine casein and 1.0% human serum albumin, 37° C., percent of maximal response to GLP-1(7-36)NH2, read-out: hGLP-1R Emax, % ± SEM) was determined as 109%; at hGIPR (HEK293, 0.1% bovine casein and 1.0% human serum albumin, 37° C., percent of maximal response to GIP(1-42)NH2, read-out: hGIPR Emax, % ± SEM), 80.2%; at hGIPR (HEK293, percent of maximal response to GIP(1-42)NH2, 37° C., 0.1% bovine casein, arithmetic mean, read-out: hGIPR Emax, % ± SEM), 97.1 ± 2.7%. Also, the Ki in test [1] (setting [3]) amounted to 3.38 nM.

For `CC[C@H](C)[C@H](NC(=O)[C@H](CCCN)NC(=O)[C@H](CC(=O)O)NC(=O)[C@H](CC(C)C)NC(=O)[C@](C)(CC(C)C)NC(=O)[C@@H](NC(=O)C(C)(C)NC(=O)[C@H](Cc1ccncc1)NC(=O)[C@H](CC(=O)O)NC(=O)[C@H](CO)NC(=O)[C@@H](NC(=O)[C@](C)(Cc1ccccc1F)NC(=O)[C@@H](NC(=O)CNC(=O)[C@H](CCC(=O)O)NC(=O)C(C)(C)NC(=O)[C@@H](N)Cc1ccc(O)cc1)[C@@H](C)O)[C@@H](C)O)[C@@H](C)CC)C(=O)N[C@@H](C)C(=O)N[C@@H](CCC(N)=O)C(=O)NC(C)(C)C(=O)N[C@@H](CCC(=O)O)C(=O)N[C@@H](Cc1ccccc1)C(=O)N[C@H](C(=O)N[C@@H](CCCCNC(=O)COCCOCCNC(=O)COCCOCCNC(=O)CC[C@H](NC(=O)CCCCCCCCCOc1ccc(C(=O)O)cc1)C(=O)O)C(=O)N[C@@](C)(Cc1ccc(O)cc1)C(=O)N[C@@H](CC(C)C)C(=O)N[C@H](C(=O)N[C@@H](CCCCNC(=O)COCCOCCNC(=O)COCCOCCNC(=O)CC[C@H](NC(=O)CCCCCCCCCOc1ccc(C(=O)O)cc1)C(=O)O)C(=O)NCC(=O)NCC(=O)N1CCC[C@H]1C(=O)N[C@@H](CO)C(=O)N[C@@H](CO)C(=O)NCC(=O)N[C@@H](C)C(=O)N1CCC[C@H]1C(=O)N1CCC[C@H]1C(=O)N1CCC[C@H]1C(=O)N[C@@H](CO)C(N)=O)[C@@H](C)CC)[C@@H](C)CC` [Example 246], the EC50 on hGLP-1R (hGLP-1R EC50, nM (SEM, n), cAMP, incubated at 37° C., 0.1% bovine casein (no human serum albumin)) is 0.441 nM; at hGCGR (hGCGR EC50, nM (SEM, n), 0.1% bovine casein and 1.0% human serum albumin, 37° C.), greater than 9950 nM; on hGCGR (hGCGR EC50, nM (SEM, n), cAMP, incubated at 37° C., 0.1% bovine casein (no human serum albumin)), greater than 9950 nM; on hGIPR (hGIPR EC50, nM (SEM, n), cAMP, incubated at 37° C., 0.1% bovine casein (no human serum albumin)) it was 0.0223 nM. This molecule displayed a Ki in test [1] of 0.557 nM. Further, the Emax at hGIPR (HEK293, read-out: hGIPR Emax, % ± SEM, 0.1% bovine casein and 1.0% human serum albumin, 37° C., percent of maximal response to GIP(1-42)NH2) was found to be 91%; at hGIPR (HEK293, read-out: hGIPR Emax, % ± SEM, percent of maximal response to GIP(1-42)NH2, 37° C., 0.1% bovine casein, arithmetic mean) it was 96.9%.

Take `CCCCCCCCCCCCCCCC(=O)N[C@@H](CCC(=O)NCCOCCOCC(=O)NCCOCCOCC(=O)NCCCC[C@H](NC(=O)[C@H](CCCN)NC(=O)[C@H](CC(=O)O)NC(=O)[C@H](CC(C)C)NC(=O)[C@](C)(CC(C)C)NC(=O)[C@@H](NC(=O)[C@H](CO)NC(=O)[C@H](Cc1ccncc1)NC(=O)[C@H](CC(=O)O)NC(=O)[C@H](CO)NC(=O)[C@@H](NC(=O)[C@](C)(Cc1ccccc1F)NC(=O)[C@@H](NC(=O)CNC(=O)[C@H](CCC(=O)O)NC(=O)C(C)(C)NC(=O)[C@@H](N)Cc1ccc(O)cc1)[C@@H](C)O)[C@@H](C)O)[C@@H](C)CC)C(=O)N[C@@H](C)C(=O)N[C@@H](CCC(N)=O)C(=O)NC(C)(C)C(=O)N[C@@H](CCCCNC(=O)COCCOCCNC(=O)COCCOCCNC(=O)CC[C@H](NC(=O)CCCCCCCCCCCCCCC)C(=O)O)C(=O)N[C@@H](Cc1ccccc1)C(=O)N[C@H](C(=O)N[C@H](CCC(=O)O)C(=O)N[C@@](C)(Cc1ccc(O)cc1)C(=O)N[C@@H](CC(C)C)C(=O)N[C@H](C(=O)N[C@@H](CCC(=O)O)C(=O)NCC(=O)NCC(=O)N1CCC[C@H]1C(=O)N[C@@H](CO)C(=O)N[C@@H](CO)C(=O)NCC(=O)N[C@@H](C)C(=O)N1CCC[C@H]1C(=O)N1CCC[C@H]1C(=O)N1CCC[C@H]1C(=O)N[C@@H](CO)C(N)=O)[C@@H](C)CC)[C@@H](C)CC)C(=O)O` [Example 21]: the EC50 at hGLP-1R (setting [2]) is 0.806 nM; at hGCGR (setting [4]) it was greater than 9950 nM; at hGCGR (setting [5]) it was greater than 9950 nM; at hGIPR (setting [6]), 0.302 nM. In test [1] (setting [3]), the Ki came out at 0.246 nM.
